Results: US20080249144A1, “Preventive or Therapeutic Agent for Chronic Inflammatory Lung Disease” (KAKEN PHARMACEUITICAL CO., LTD., priority 2004, published 2008)
Blank lines part the entries; values can stand above or below the molecule they belong to.

Experiments:
COPD patients = settings: according to the reports (Non-patent documents 7, 8 and patent document 1); cited from earlier work
human neutrophils = assay: LTB4-induced human neutrophil migration (48-well modified Boyden chamber); format: cell-based; settings: test substance 10 μmol/L; 10 nmol/L LTB4
Method: Leukocytes were collected from human peripheral blood samples (20 mL of venous blood was taken by a doctor) were obtained from 4 healthy adults (male). They received sufficient information on the purpose of the experiment and gave informed consent in advance. An equivalent amount of 3% dextran (M.W. 208000) saline solution was added to the heparinized blood thus obtained and the mixture was kept to stand for one hour. Thereafter, the supernatant was collected and centrifuged at 150 g for 5 minutes at 4° C. The supernatant was discarded and the pellet was repeatedly twice haemolysed. To explain in detail, 4 mL of an ice-cooled 0.2% NaCl solution was added, quickly suspended and allowed to stand for 20 to 30 seconds. Thereafter, 4 mL of an ice-cooled 1.6% NaCl solution was added to the suspension solution to return the solution to the isotonic condition. After centrifugation was performed at 150 g for 5 minutes at 4° C., the same treatment was repeated. The cell pellet obtained was finally suspended in a buffer (Hank's solution containing 0.1% FBS) and subjected to an experiment.
This experiment was performed using a 48-well modified Boyden chamber (Neuro Probe). To explain in detail, the wells of the bottom plate of the chamber were filled with 25 μl of vehicle solution containing 10 nmol/L of LTB4. A polycarbonate filter (PVP-free, pore size: 3 μm) was placed on the bottom plate. The top plate of the chamber was mounted and each well of the upper plate was filled with 45 μL of a leukocyte suspension solution (1.0×10^6 cells/mL) prepared with the buffer. Immediately after that, 5 μL of a test substance (10 fold concentration of a final concentration) was added to the wells. […] The numbers of cells were counted in 4 visual fields (×400) per well and the average of them was regarded as the number of migrated cells. Each test substance was evaluated using 3 wells. The average value of these wells was calculated and regarded as the value of each substance.
The average and standard deviation of each group were calculated. […]

[1] = tested on: PPE-induced pulmonary emphysema model; assay: PPE-induced pulmonary emphysema model in mice; format: in vivo
Method: Eight-week old C57BL strain mice were anaesthetized with isoflurane. PPE (25 μg) was administered once to the lung through a cannula inserted into the trachea through the pharyngolarynx to induce a pulmonary damage. To a non-PPE administration group (normal group), saline was administered instead. In a preventive administration experiment (hereinafter referred to as a “preventive experiment”) of KP-496, drug effect was evaluated on inflammatory cells in BALF 2 days after PPE administration and by histopathological examination of the lung after 10 days. In a therapeutic administration experiment of KP-496 (hereinafter referred to as a “therapeutic experiment”), the drug effect was evaluated by histo-pathological examination of the lung and weight of the organs 14 days after PPE administration.
The medicament administration period was set from the PPE administration date to the day before autopsy in the preventive experiment and set from a predetermined day (KP-496A group: PPE administration date, KP-496B group: 3 days after PPE administration date, KP-496C group: 7 days after PPE administration date) to the day before autopsy in the therapeutic experiment. Inhalation administration of KP-496 was performed in the same manner as in Example 2. Furthermore, the normal group and the control group were allowed to spontaneously inhale saline, instead. A medicament for use in comparison, prednisolone, was orally administered in a dose of 5 mg/kg twice a day. A group consisted of 10 animals.
The animals were anaesthetized with pentobarbital and killed by exsanguination. Immediately after that, BAL of the right and left lungs was performed with 2 ml of saline. In the same manner as in Example 2, the total number of cells and the number of cells according to the cell type in the BALE were determined.
The lung was excised out from the animal killed by exsanguination in the same manner as in the above, the weight of the lung was measured. The lung was fixed in 10 vol % neutral buffered formalin solution. A pathological tissue sample was prepared in accordance in a general way. The degree of the damage of the lung tissue observed was evaluated by scoring in the same manner as in Example 2. Furthermore, the average of alveolar-space area of the entire lung tissue sample was computationally measured with image-processing software.
The average value and standard deviation of each group were calculated. Comparison between the normal group and the control group was performed by the Levene's test for equal variance and then, the t-test was performed depending on the results. To compare the control group and test substance administration groups, equal variance was first confirmed by the Levene's test and then multiple comparisons were performed in accordance with the Dunnett's test. Note that evaluation parameters with unequal variance and the damage score of the lung tissue were analyzed by nonparametric Mann-Whitney test. The significance level employed was […].

[2] = tested on: vanadium pentoxide-induced bronchitis model; assay: Vanadium pentoxide-induced bronchitis model in mice; format: in vivo; settings: 7 days after vanadium pentoxide; compared with control
Method: Seven-week old C57BL strain male mice were used. The mouse was anaesthetized with isoflurane. Vanadium pentoxide (20 μg) was administered once to the lung through a cannula inserted into the trachea through the pharyngolarynx to induce pathology. To a non-vanadium pentoxide administration group (normal group), saline was administered, instead. KP-496 was administered by inhalation twice a day in the period from the vanadium pentoxide administration date to the day before autopsy, in the same manner as in Example 2. Furthermore, the normal group and the control group were allowed to spontaneously inhale saline in the same manner. A medicament for use in comparison, prednisolone, was orally administered at a dose of 5 mg/kg twice a day in the period from the vanadium pentoxide administration date to the day before autopsy. Note that the normal group consisted of 6 animals and the other group consisted of 10 animals. Each of the mice was anaesthetized with pentobarbital 7 days after vanadium pentoxide administration and killed by bloodletting from the abdominal aorta. The lung was excised out and fixed in 10 vol % neutral buffered formalin solution. […] The obtained value was divided by the circumferential length of the bronchial lumen (obtained in mucosal basal membrane) and the quotient was expressed as a mucus producing region area per millimeter of the bronchus. […]

SMILES: CC1=C(C)C(=O)C(C(CCCCCC(=O)O)c2ccccc2)=C(C)C1=O (centres unmarked) [seratorodast, reference compound]
respiratory function of COPD patients (COPD patients): improves the respiratory function
suppression of LTB4-induced neutrophil migration (human neutrophils): did not suppress the migration at all

SMILES: COc1cc(C(=O)NS(=O)(=O)c2ccccc2C)ccc1Cc1cn(C)c2ccc(NC(=O)OC3CCCC3)cc12 [zafirlukast]
respiratory function of COPD patients (COPD patients): improves the respiratory function

weights of the organs (liver, spleen and thymus gland) ([1]; compared to control group): significantly decreased
SMILES: C[C@]12C=CC(=O)C=C1CC[C@@H]1[C@@H]2[C@@H](O)C[C@@]2(C)[C@H]1CC[C@]2(O)C(=O)CO [prednisolone, reference compound]
total number of cells in BALF ([1]; 2 days after PPE administration, preventive experiment): 4.3±2.1 ×10^5 cells
number of eosinophils in BALF ([1]; 2 days after PPE, compared to control group): significantly decreased
increase in lung weight ([1]; preventive experiment, 10 days after PPE): significantly suppressed
damage score of the lung ([1]; preventive experiment, 10 days after PPE, compared with control group): significantly decreased
body weight change ([1]; preventive experiment, up to 10 days after PPE, compared to control group): significant reduction compared to the control group
increase of the average of the alveolar-space area ([1]; preventive experiment, compared to control): significantly suppressed
increase of PAS positive area (mucus producing region of intrapulmonary bronchial epithelium) [2]: significantly suppressed
